Literature values, collected in patent publication US20120177729A1, “SUSTAINED RELEASE COMPOSITION OF RANOLAZINE” (Lupin Limited, priority 2009, published 2012).

How the values were obtained:
[1] = in vivo

Plasma half-life [1]: relatively short | Solubility (low pH that occurs in the stomach): relatively high | Solubility in aqueous solutions (pH above about 6.5): relatively insoluble
Compound: COc1ccccc1OCC(O)CN1CCN(CC(=O)Nc2c(C)cccc2C)CC1 (racemic) [Ranolazine, (±)-N-(2,6-dimethylphenyl)-4-[2-hydroxy-3-(2-methoxyphenoxy)propyl]-1-piperazine-acetamide]
